Here are results for 4 compounds from paper PMC7827406, “Structure–Activity Relationship (SAR) Study of Spautin-1 to Entail the Discovery of Novel NEK4 Inhibitors” (International Journal of Molecular Sciences, 2021).

Molecules are shown by their SMILES. Like-named read-outs stand apart in the source and are kept apart here.

Holding throughout (assay): biochemical
What all share (set-up): Eurofins KinaseProfiler full panel at Km ATP, residual kinase activity (%) relative to DMSO

In one assay the target is T1, BMPR2(h) (Homo sapiens, UniProt Q13873).
T1 sequence (Q13873 1-1038): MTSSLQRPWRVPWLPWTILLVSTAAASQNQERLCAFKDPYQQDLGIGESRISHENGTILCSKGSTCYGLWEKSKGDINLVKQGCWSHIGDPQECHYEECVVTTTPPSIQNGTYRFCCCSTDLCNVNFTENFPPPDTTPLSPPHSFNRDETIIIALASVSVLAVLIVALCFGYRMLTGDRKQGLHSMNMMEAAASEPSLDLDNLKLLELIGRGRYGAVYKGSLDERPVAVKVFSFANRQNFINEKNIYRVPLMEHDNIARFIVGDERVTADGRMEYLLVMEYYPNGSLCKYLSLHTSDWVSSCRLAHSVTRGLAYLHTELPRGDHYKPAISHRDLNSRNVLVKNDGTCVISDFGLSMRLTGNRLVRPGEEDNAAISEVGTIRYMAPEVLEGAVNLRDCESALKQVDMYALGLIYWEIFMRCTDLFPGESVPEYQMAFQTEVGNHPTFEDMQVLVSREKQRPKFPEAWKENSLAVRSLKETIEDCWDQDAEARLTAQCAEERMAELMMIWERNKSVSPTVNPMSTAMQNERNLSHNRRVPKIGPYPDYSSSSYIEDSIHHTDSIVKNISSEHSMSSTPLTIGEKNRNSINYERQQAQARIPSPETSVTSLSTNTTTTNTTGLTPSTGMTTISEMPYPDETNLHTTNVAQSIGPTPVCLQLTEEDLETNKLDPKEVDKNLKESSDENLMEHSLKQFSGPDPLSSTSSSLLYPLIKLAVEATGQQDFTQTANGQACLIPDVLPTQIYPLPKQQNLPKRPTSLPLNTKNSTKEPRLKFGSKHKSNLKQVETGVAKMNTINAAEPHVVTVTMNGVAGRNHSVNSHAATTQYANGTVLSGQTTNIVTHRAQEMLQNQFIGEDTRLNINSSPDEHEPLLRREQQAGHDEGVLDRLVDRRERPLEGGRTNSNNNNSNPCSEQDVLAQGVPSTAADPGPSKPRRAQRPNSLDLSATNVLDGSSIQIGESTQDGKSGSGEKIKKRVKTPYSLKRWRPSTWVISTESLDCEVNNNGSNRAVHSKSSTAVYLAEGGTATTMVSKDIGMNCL
The gist of the method: (§1)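 Compounds screened at 10 µM in radiometric kinase activity assays at Km ATP, reported as remaining kinase activity (%). A KINOMEscan competition-binding screen at 10 µM measured DNA-tagged kinase retained on immobilized active-site ligand by qPCR.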

The next assay has as its target PAK5(h) (Homo sapiens, UniProt Q9P286). The method, boiled down: as §1
Another assay concerns the target T2, GRK7(h) (Homo sapiens, UniProt Q8WTQ7).
T2 sequence (Q8WTQ7 1-553): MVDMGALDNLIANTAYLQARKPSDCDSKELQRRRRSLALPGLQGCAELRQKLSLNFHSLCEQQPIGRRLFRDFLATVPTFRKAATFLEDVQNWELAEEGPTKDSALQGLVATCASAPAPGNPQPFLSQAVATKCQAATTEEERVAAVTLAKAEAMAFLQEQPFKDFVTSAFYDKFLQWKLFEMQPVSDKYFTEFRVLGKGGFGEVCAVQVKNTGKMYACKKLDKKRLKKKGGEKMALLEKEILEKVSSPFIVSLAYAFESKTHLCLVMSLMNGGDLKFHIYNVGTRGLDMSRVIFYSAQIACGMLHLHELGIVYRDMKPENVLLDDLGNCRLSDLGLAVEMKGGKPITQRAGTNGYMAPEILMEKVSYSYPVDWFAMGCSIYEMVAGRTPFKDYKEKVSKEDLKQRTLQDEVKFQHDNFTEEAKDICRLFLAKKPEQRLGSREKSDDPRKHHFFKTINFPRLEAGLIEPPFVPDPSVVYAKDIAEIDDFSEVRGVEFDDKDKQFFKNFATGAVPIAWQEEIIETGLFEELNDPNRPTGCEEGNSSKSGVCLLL
The method, boiled down:
as §1

A further assay addresses T3, NUAK2(h) (Homo sapiens, UniProt Q9H093).
T3 sequence (Q9H093 1-628): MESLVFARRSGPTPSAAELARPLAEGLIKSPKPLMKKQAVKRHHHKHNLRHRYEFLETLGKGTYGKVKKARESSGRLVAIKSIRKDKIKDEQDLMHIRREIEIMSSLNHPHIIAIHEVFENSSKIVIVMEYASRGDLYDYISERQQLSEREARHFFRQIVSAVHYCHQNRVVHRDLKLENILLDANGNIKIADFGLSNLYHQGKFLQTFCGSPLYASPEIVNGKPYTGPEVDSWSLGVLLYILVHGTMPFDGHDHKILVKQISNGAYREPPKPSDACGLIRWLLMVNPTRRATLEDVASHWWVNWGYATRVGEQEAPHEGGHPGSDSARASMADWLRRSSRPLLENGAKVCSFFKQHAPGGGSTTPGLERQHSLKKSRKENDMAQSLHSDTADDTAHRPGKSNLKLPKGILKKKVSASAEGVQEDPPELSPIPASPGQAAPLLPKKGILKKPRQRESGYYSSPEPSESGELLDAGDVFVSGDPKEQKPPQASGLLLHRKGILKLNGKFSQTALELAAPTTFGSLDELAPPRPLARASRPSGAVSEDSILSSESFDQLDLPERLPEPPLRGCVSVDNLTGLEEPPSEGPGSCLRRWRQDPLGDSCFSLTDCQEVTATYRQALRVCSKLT
The gist of the method:
as §1

The target of the next assay is T4, CaMKIIα(h) (Homo sapiens, UniProt Q9UQM7).
T4 construct: gene CAMK2A
The method, boiled down:
as §1

Setting [1] is: read-out: Residual activity (%) 5at.
The mark [2] stands for this setting: read-out: Residual activity (%) 5ay.
Setting [3] is: read-out: Residual activity (%) 5as.
[4] abbreviates: read-out: Residual activity (%) Spautin-1 5aa.

PAK5(h), sequence (Q9P286 whole entry): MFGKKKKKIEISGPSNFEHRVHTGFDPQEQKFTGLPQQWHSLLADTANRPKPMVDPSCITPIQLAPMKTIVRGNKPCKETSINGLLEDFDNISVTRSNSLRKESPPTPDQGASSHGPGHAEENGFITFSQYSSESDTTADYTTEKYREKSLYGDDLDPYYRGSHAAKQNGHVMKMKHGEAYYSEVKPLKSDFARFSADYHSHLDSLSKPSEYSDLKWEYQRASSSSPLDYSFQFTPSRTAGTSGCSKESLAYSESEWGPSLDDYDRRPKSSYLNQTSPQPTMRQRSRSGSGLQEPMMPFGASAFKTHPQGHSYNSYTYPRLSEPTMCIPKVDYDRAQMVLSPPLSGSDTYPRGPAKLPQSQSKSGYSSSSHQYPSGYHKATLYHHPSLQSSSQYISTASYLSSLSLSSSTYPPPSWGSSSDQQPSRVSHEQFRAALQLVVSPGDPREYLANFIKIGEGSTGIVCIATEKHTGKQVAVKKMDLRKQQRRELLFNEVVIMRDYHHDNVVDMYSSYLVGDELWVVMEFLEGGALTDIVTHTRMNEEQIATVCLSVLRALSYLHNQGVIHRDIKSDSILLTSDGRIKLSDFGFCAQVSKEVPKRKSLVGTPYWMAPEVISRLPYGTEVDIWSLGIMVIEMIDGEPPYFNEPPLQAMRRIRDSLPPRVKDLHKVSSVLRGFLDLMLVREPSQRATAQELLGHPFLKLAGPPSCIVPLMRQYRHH
T4 sequence (Q9UQM7 whole entry): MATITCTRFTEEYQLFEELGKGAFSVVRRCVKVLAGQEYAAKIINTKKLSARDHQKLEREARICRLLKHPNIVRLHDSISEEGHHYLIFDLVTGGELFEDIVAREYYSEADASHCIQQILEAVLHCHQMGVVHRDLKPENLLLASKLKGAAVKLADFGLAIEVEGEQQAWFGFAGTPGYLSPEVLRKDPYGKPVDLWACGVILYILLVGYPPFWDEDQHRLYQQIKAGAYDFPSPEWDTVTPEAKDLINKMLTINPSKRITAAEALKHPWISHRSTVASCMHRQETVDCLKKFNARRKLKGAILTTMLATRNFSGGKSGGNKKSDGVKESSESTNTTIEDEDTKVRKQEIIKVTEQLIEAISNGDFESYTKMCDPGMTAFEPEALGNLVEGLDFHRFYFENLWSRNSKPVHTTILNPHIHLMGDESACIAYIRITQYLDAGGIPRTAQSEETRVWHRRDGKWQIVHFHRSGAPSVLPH

`Fc1ccc2ncnc(NCCc3ccc(Cl)cc3)c2c1` [5at, N-[2-(4-Chlorophenyl)Ethyl]-6-Fluoro-4-Quinazolinamine]: the remaining activity at 10 µM turned out to be 103% on BMPR2(h) (setting [1]); 86% on PAK5(h) (setting [1]); 93% on GRK7(h) (setting [1]); 117% on NUAK2(h) (setting [1]); 89% at CaMKIIα(h) (setting [1]).
Take `COc1ccc2ncnc(Nc3cccc(F)c3)c2c1` [5ay, N-(3-Fluorophenyl)-6-Methoxy-4-Quinazolinamine]: the remaining activity at 10 µM came out at 99% on BMPR2(h) (setting [2]); 83% at PAK5(h) (setting [2]); 91% at GRK7(h) (setting [2]); 110% at NUAK2(h) (setting [2]); 58% at CaMKIIα(h) (setting [2]).
For the compound `Fc1ccc(CCNc2ncnc3ccc(F)cc23)cc1` [5as, 6-Fluoro-N-[2-(4-Fluorophenyl)Ethyl]-4-Quinazolinamine], the remaining activity at 10 µM on BMPR2(h) (setting [3]) came out at 108%; on PAK5(h) (setting [3]), 85%; at GRK7(h) (setting [3]), 95%; on NUAK2(h) (setting [3]), 112%; on CaMKIIα(h) (setting [3]), 88%.
As to `Fc1ccc(CNc2ncnc3ccc(F)cc23)cc1` [5aa, 6-Fluoro-N-(4-fluorobenzyl)-4-Quinazolinamine], the remaining activity at 10 µM on BMPR2(h) (setting [4]) stood at 115%; on PAK5(h) (setting [4]), 95%; at GRK7(h) (setting [4]), 87%; at NUAK2(h) (setting [4]), 121%; on CaMKIIα(h) (setting [4]), 94%.
